Data from the NIST ThermoML archive (doi:10.1016/j.jct.2013.04.015).
± gives the expanded uncertainty stated by the source.

Test: xn = mol fraction of the nth substance listed
Conditions: for surface tension liquid-gas: Wilhelmy plate method; for mass density: 101 kPa, Liquid, Vibrating tube method

CCCCn1cc[n+](C)c1.C[C@H](O)C(=O)[O-] [1-butyl-3-methylimidazolium L-lactate] + CO
Conditions	mass density [kg/m3]	surface tension liquid-gas [mN/m]
298.15 K, x1 = 0.0121	–	23.38 ± 0.31
298.15 K, x1 = 0.0353	–	24.72 ± 0.31
298.15 K, x1 = 0.0496	–	25.63 ± 0.31
298.15 K, x1 = 0.0699	–	26.72 ± 0.31
298.15 K, x1 = 0.0901	–	28.06 ± 0.31
298.15 K, x1 = 0.0998	960.5 ± 0.5	–
298.15 K, x1 = 0.1051	–	28.6 ± 0.31
298.15 K, x1 = 0.1968	1022.4 ± 0.4	–
298.15 K, x1 = 0.1995	–	31.01 ± 0.31
298.15 K, x1 = 0.3	1063.1 ± 0.4	–
298.15 K, x1 = 0.3011	–	33.55 ± 0.32
298.15 K, x1 = 0.3999	1075.9 ± 0.4	–
298.15 K, x1 = 0.4038	–	35.7 ± 0.33
298.15 K, x1 = 0.5	1082.9 ± 0.4	–
298.15 K, x1 = 0.5029	–	36.97 ± 0.33
298.15 K, x1 = 0.5996	1088 ± 0.4	–
298.15 K, x1 = 0.614	–	38.06 ± 0.34
298.15 K, x1 = 0.7001	1090.5 ± 0.5	–
298.15 K, x1 = 0.7037	–	38.57 ± 0.34
298.15 K, x1 = 0.8002	1091.5 ± 0.5	–
298.15 K, x1 = 0.8056	–	39.25 ± 0.35
298.15 K, x1 = 0.8988	1097.8 ± 0.5	–
298.15 K, x1 = 0.9152	–	40.89 ± 0.36
298.15 K, x1 = 1	1111.2 ± 0.5	42.92 ± 0.37
308.15 K, x1 = 0.0115	–	22.56 ± 0.31
308.15 K, x1 = 0.0346	–	24.12 ± 0.31
308.15 K, x1 = 0.0544	–	25.1 ± 0.31
308.15 K, x1 = 0.0702	–	26.05 ± 0.31
308.15 K, x1 = 0.091	–	27.26 ± 0.31
308.15 K, x1 = 0.0998	956.6 ± 0.5	–
308.15 K, x1 = 0.1058	–	28.32 ± 0.31
308.15 K, x1 = 0.1968	1019.4 ± 0.4	–
308.15 K, x1 = 0.2002	–	30.7 ± 0.31
308.15 K, x1 = 0.3	1057.4 ± 0.4	–
308.15 K, x1 = 0.3033	–	33.15 ± 0.32
308.15 K, x1 = 0.3999	1070.5 ± 0.4	–
308.15 K, x1 = 0.4003	–	35.37 ± 0.32
308.15 K, x1 = 0.5	1077.4 ± 0.4	–
308.15 K, x1 = 0.5032	–	36.69 ± 0.33
308.15 K, x1 = 0.5913	–	37.46 ± 0.34
308.15 K, x1 = 0.5996	1084.2 ± 0.4	–
308.15 K, x1 = 0.7001	1085.4 ± 0.5	–
308.15 K, x1 = 0.7064	–	37.66 ± 0.34
308.15 K, x1 = 0.791	–	38.03 ± 0.35
308.15 K, x1 = 0.8002	1087.2 ± 0.5	–
308.15 K, x1 = 0.8938	–	39.37 ± 0.35
308.15 K, x1 = 0.8988	1089 ± 0.5	–
308.15 K, x1 = 1	1104.2 ± 0.5	42.37 ± 0.37
318.15 K, x1 = 0.0118	–	21.91 ± 0.31
318.15 K, x1 = 0.0364	–	23.48 ± 0.31
318.15 K, x1 = 0.0527	–	24.57 ± 0.31
318.15 K, x1 = 0.0711	–	25.49 ± 0.31
318.15 K, x1 = 0.0907	–	26.91 ± 0.31
318.15 K, x1 = 0.0998	953.2 ± 0.5	–
318.15 K, x1 = 0.1085	–	27.8 ± 0.31
318.15 K, x1 = 0.1968	1014.3 ± 0.4	–
318.15 K, x1 = 0.2003	–	29.96 ± 0.31
318.15 K, x1 = 0.3	1051.9 ± 0.4	–
318.15 K, x1 = 0.302	–	32.56 ± 0.32
318.15 K, x1 = 0.3999	1066.8 ± 0.4	–
318.15 K, x1 = 0.4072	–	35.2 ± 0.32
318.15 K, x1 = 0.5	1074.7 ± 0.4	–
318.15 K, x1 = 0.5096	–	36.52 ± 0.33
318.15 K, x1 = 0.5996	1077.7 ± 0.4	–
318.15 K, x1 = 0.6103	–	36.74 ± 0.33
318.15 K, x1 = 0.7001	1078 ± 0.5	–
318.15 K, x1 = 0.7054	–	36.95 ± 0.34
318.15 K, x1 = 0.8002	1078.9 ± 0.5	–
318.15 K, x1 = 0.8108	–	37.31 ± 0.34
318.15 K, x1 = 0.8845	–	38.3 ± 0.35
318.15 K, x1 = 0.8988	1079.9 ± 0.5	–
318.15 K, x1 = 1	1097.7 ± 0.5	42.01 ± 0.37

CCCCn1cc[n+](C)c1.C[C@H](O)C(=O)[O-] [1-butyl-3-methylimidazolium L-lactate] + O
Conditions	mass density, 298.15 K [kg/m3]	mass density, 308.15 K [kg/m3]	mass density, 318.15 K [kg/m3]	surface tension liquid-gas, 298.15 K [mN/m]	surface tension liquid-gas, 308.15 K [mN/m]	surface tension liquid-gas, 318.15 K [mN/m]
x1 = 0.0097	–	–	–	53.67 ± 0.63	51.15 ± 0.6	49.79 ± 0.6
x1 = 0.0303	–	–	–	47.86 ± 0.56	46.42 ± 0.55	45.58 ± 0.54
x1 = 0.0401	–	–	–	46.95 ± 0.55	46.08 ± 0.54	45.57 ± 0.54
x1 = 0.0602	–	–	–	46.15 ± 0.54	45.87 ± 0.54	45.55 ± 0.53
x1 = 0.0801	–	–	–	46.98 ± 0.54	46.54 ± 0.54	46.18 ± 0.54
x1 = 0.1	–	–	–	46.96 ± 0.54	46.83 ± 0.54	46.15 ± 0.53
x1 = 0.1001	1042.3 ± 0.9	1039.4 ± 0.9	1036.4 ± 0.9	–	–	–
x1 = 0.2001	1061.4 ± 0.8	1058.3 ± 0.8	1055 ± 0.8	46.03 ± 0.51	44.94 ± 0.5	44.2 ± 0.5
x1 = 0.2999	1075 ± 0.8	1071 ± 0.8	1066.6 ± 0.8	–	–	–
x1 = 0.3003	–	–	–	44.61 ± 0.48	43.59 ± 0.48	42.86 ± 0.47
x1 = 0.3985	1083.6 ± 0.7	1079.1 ± 0.7	1074.1 ± 0.7	–	–	–
x1 = 0.3997	–	–	–	44.08 ± 0.46	43.16 ± 0.46	42.44 ± 0.45
x1 = 0.4994	–	–	–	43.46 ± 0.44	43.07 ± 0.44	42.27 ± 0.44
x1 = 0.5023	1090.3 ± 0.7	1085.4 ± 0.7	1080.2 ± 0.7	–	–	–
x1 = 0.5989	–	–	–	43.47 ± 0.43	42.87 ± 0.42	42.11 ± 0.42
x1 = 0.6002	1095.7 ± 0.6	1090.2 ± 0.6	1084.3 ± 0.6	–	–	–
x1 = 0.6982	–	–	–	43.41 ± 0.41	42.62 ± 0.41	42.02 ± 0.41
x1 = 0.6986	1099.8 ± 0.6	1093.5 ± 0.6	1087.4 ± 0.6	–	–	–
x1 = 0.8	1103.3 ± 0.6	1096.6 ± 0.6	1090.3 ± 0.5	–	–	–
x1 = 0.8017	–	–	–	43.35 ± 0.4	42.54 ± 0.39	42 ± 0.39
x1 = 0.8965	–	–	–	43.2 ± 0.38	42.48 ± 0.38	41.82 ± 0.38
x1 = 0.9001	1107.2 ± 0.5	1100.3 ± 0.5	1093.8 ± 0.5	–	–	–
x1 = 1	1111.2 ± 0.5	1104.2 ± 0.5	1097.7 ± 0.5	42.92 ± 0.37	42.37 ± 0.37	42.01 ± 0.37

CCCCO [butan-1-ol] + CCCCn1cc[n+](C)c1.C[C@H](O)C(=O)[O-]
x2 = 0
Conditions	mass density [kg/m3]	surface tension liquid-gas [mN/m]
298.15 K	805.7 ± 0.4	23.89 ± 0.3
308.15 K	798 ± 0.4	23.46 ± 0.3
318.15 K	790.1 ± 0.4	22.62 ± 0.3

CCO [ethanol] + CCCCn1cc[n+](C)c1.C[C@H](O)C(=O)[O-]
x2 = 0
Conditions	mass density [kg/m3]	surface tension liquid-gas [mN/m]
298.15 K	784.7 ± 0.4	22.11 ± 0.31
308.15 K	776.2 ± 0.4	21.13 ± 0.3
318.15 K	767 ± 0.4	20.48 ± 0.3

CO [methanol] + CCCCn1cc[n+](C)c1.C[C@H](O)C(=O)[O-]
x2 = 0
Conditions	mass density [kg/m3]	surface tension liquid-gas [mN/m]
298.15 K	786.4 ± 0.4	22.22 ± 0.31
308.15 K	776.9 ± 0.4	21.46 ± 0.3
318.15 K	767.2 ± 0.4	20.46 ± 0.3

O [water] + CCCCn1cc[n+](C)c1.C[C@H](O)C(=O)[O-]
x2 = 0
Conditions	mass density [kg/m3]	surface tension liquid-gas [mN/m]
298.15 K	–	71.85 ± 0.78
308.15 K	994.1 ± 0.9	70.48 ± 0.77
318.15 K	–	68.89 ± 0.75
